Read-outs that look alike come from different tables or passages of the source. One block for each compound: values may come before it.
Key:
[1] = Stability of a TCO compound under various conditions (HPLC-MS/PDA and/or GC-MS); type: physicochemical; details: for half-life at 2.3 mM: read-out: Stability of TCO: t1/2
Procedure: The TCO stock solution (10 μL 25 mM; 2.5*10^−7 mol) was added to a solution of the specific condition (100 μL). The mixture was stirred at the specific condition for a certain amount of time, and then the fate of the TCO compound was monitored by HPLC-MS/PDA analysis and/or GC-MS analysis, and an estimation of its stability was made.
(§1) Conditions: A) in acetonitrile with 5 equivalents of pyridine per TCO at 20° C.
B) in acetonitrile with 5 equivalents of DIPEA per TCO at 20° C. C) in acetonitrile with 5 equivalents of piperidine per TCO at 20° C. D) in acetonitrile with 5 equivalents of n-butylamine per TCO at 20° C. E) in acetonitrile with 5 equivalents of 2-mercaptoethanol per TCO at 20° C. F) in tetrahydrofuran with 5 equivalents of triphenylphosphine per TCO at 20° C. G) in acetonitrile with 5 equivalents of DCC per TCO at 20° C. H) in acetonitrile with 5 equivalents of PyBOP per TCO at 20° C. […] J) in chloroform at 20° C. […] L) in chloroform with 1 v % of trifluoroacetic acid at 20° C. M) in chloroform with 10 v % of trifluoroacetic acid at 20° C. N) in chloroform with 33 v % of trifluoroacetic acid at 20° C. Z) in 25% acetonitrile in water at 20° C.

[2] = Tetrazine-induced deprotection (TCO activation) under various conditions
Procedure: In addition, the tetrazine-induced TCO activation was studied under the same conditions. […] In addition to amines, also hydroxy and carboxylic acids form stable conjugates with TCO and can subsequently be cleaved in a range of conditions.
The TCO stock solution (10 μL 25 mM in acetonitrile; 2.5*10^−7 mol) was added to a solution of the specific condition (100 μL). A solution of 3,6-dimethyl-1,2,4,5-tetrazine (8, 20 uL 25 mM in acetonitrile; 5.0*10^−7 mol) was added, and the mixture was stirred at the specific condition for a certain amount of time. The reaction was monitored by HPLC-MS/PDA analysis and/or GC-MS analysis, and the percentage of deprotection was estimated.
as §1
B) in acetonitrile with 5 equivalents of DIPEA per TCO at 20° C. C) in acetonitrile with 5 equivalents of piperidine per TCO at 20° C. D) in acetonitrile with 5 equivalents of n-butylamine per TCO at 20° C. E) in acetonitrile with 5 equivalents of 2-mercaptoethanol per TCO at 20° C. F) in tetrahydrofuran with 5 equivalents of triphenylphosphine per TCO at 20° C. G) in acetonitrile with 5 equivalents of DCC per TCO at 20° C. H) in acetonitrile with 5 equivalents of PyBOP per TCO at 20° C. I) in acetonitrile with 1 v % of formic acid at 20° C. J) in chloroform at 20° C. K) in chloroform with 1 v % of formic acid at 20° C. L) in chloroform with 1 v % of trifluoroacetic acid at 20° C. M) in chloroform with 10 v % of trifluoroacetic acid at 20° C. N) in chloroform with 33 v % of trifluoroacetic acid at 20° C. Z) in 25% acetonitrile in water at 20° C.

[3] = Tetrazine-induced doxorubicin release from Axial-TCO-1-Doxorubicin in PBS/MeCN (LCMS)
Procedure: PBS/MeCN (1 mL, 3/1), preheated at 37° C. and TCO-2-doxorubicin (10 μL of a 2.5 mM solution in DMSO, 1 eq.) were added to a preheated injection vial. Tetrazine (10 μL of a 25 mM solution in DMSO, 10 eq.) was added and the vial was vortexed. After incubation for 1 hour at 37° C., the vial was placed in LC-MS autosampler at 10° C. LC-MS analysis was performed using a 5% to 100% H2O/MeCN gradient over 11 minutes with a C18 reverse-phase column at 35° C. A control sample containing only TCO-2-doxorubicin (1 eq), as well as a sample containing only doxorubicin (1 eq.), was analyzed under the same conditions. All tetrazine containing samples were measured twice and the doxorubicin control sample was run after every three other samples during an overnight program. The peak area of released dox was divided by the peak area of TCO-2-doxorubicin or doxorubicin reference signals and multiplied by 100 to calculate the percentage of release. The calculated percentage of release was corrected when it was observed that the TCO-2-doxorubicin was not fully converted to inv-DA adduct(s). This was done by quantification of remaining dox-TCO, but full conversion was almost always observed. Peak areas (used for doxorubin quantification) were determined at A=470-500 nm where characteristic doxorubicin absorption takes place and peak integration was done by hand.
(§2) In a similar fashion as Example 3, the release of doxorubicin from TCO-1-doxorubucin as induced by tetrazines 1,8,9 in PBS/ACN and in serum was measured.

[4] = Tetrazine-induced doxorubicin release from Axial-TCO-1-Doxorubicin in serum (HPLC-MS/PDA); set-up: species or system mouse; details: 37° C.
Procedure: as §2
Serum experiments were conducted as follows:
TCO-1-doxorubucin (6.25×10^−8 mol) was dissolved in DMSO (0.050 mL), and PBS (0.475 mL) was added slowly in aliquots of 0.010 mL, followed by mouse serum (0.475 mL). […] Subsequently, cold MeCN (0.200 mL) was added, followed by centrifugation at 13400 rpm for 5 min. The supernatant was used for further analysis by HPLCMS/PDA analysis to determine the release of doxorubicin.

[5] = 0.1M HCOOH buffer, pH = 2.0 for 2 day, 20° C.
[6] = 0.1M NH3 buffer, pH = 11 for 5 day, 20° C.
[7] = 0.1M NH4OAc buffer, pH = 7.0 for 5 day, 20° C.
[8] = 0.1M NH4OAc buffer, pH = 8.0 for 8 day, 20° C.
[9] = 0.1M NH4OAc buffer, pH = 9.0 for 8 day, 20° C.
[10] = 0.1M NH4OAc buffer, pH = 10.0 for 8 day, 20° C.
[11] = 10% MeCN in H2O at 70° C. for 5 day
[12] = 10% MeCN in H2O for 5 day, 20° C.
[13] = with 5 eq. of DIPEA in MeCN for 16 h, 20° C.
[14] = with 5 eq. of HCOOH in MeCN for 16 h, 20° C.
[15] = with 5 eq. of PyBOP in MeCN for 16 h, 20° C.
[16] = with 5 eq. of pyridine in MeCN for 16 h, 20° C.

Stability of TCO [1, 5]: stable
Stability of TCO: cyclization [1, 6]: < 5%
Stability of TCO [1, 7]: stable
Stability of TCO [1, 8]: stable
Stability of TCO [1, 9]: stable
Stability of TCO [1, 10]: stable
Stability of TCO: cyclization [1, 11]: <5%
Stability of TCO [1, 12]: stable
SMILES: COc1cc(COC(=O)NC2CC/C=C/CC[C@@H]2N)cc(OC)c1OC (stereo partly shown)
Deprotection (%) [2, 5]: 0%
Deprotection (%) [2, 6]: 87%
Deprotection (%) [2, 7]: 0%
Deprotection (%) [2, 8]: 0%
Deprotection (%) [2, 9]: 25%
Deprotection (%) [2, 10]: 81%
Deprotection (%) [2, 11]: 50%
Deprotection (%) [2, 12]: 0%

SMILES: N[C@H]1CC/C=C/CCC1NC(=O)Oc1ccccc1 (stereo partly shown)
half-life at 2.3 mM ([1]; 0.1M NH4OAc buffer, pH = 7.0, 20° C.): 80 h
half-life at 2.3 mM ([1]; 0.1M NH4OAc buffer, pH = 8.0, 20° C.): 17 h
half-life at 2.3 mM ([1]; 0.1M NH4OAc buffer, pH = 9.0, 20° C.): 5.3 h
Stability of TCO: cyclization [1, 13]: 6.7%
Stability of TCO: cyclization [1, 14]: 1.9%
Stability of TCO: cyclization [1, 15]: 5.9%
Stability of TCO: cyclization [1, 16]: 2.6%
Deprotection (%) [2, 13]: 98.8%
Deprotection (%) [2, 14]: 33.9%
Deprotection (%) [2, 15]: 24.4%
Deprotection (%) [2, 16]: 71.7%

SMILES: NC1/C=C/CCCCC1NC(=O)Oc1ccccc1 (stereo not shown)
half-life at 2.3 mM ([1]; in PBS buffer, 20° C.): 65 h

SMILES: NC1CCCC/C=C/C1NC(=O)Oc1ccccc1 (stereo not shown)
half-life at 2.3 mM ([1]; in PBS buffer, 20° C.): 29 h

SMILES: COc1cccc2c1C(=O)c1c(O)c3c(c(O)c1C2=O)C[C@@](O)(C(=O)CO)C[C@@H]3O[C@H]1CC(NC(=O)O[C@H]2/C=C/CCCCC2)[C@H](O)C(C)O1 (stereo partly shown) [Axial-TCO-1-Doxorubicin]
Doxorubicin release (%) from Axial-TCO-1-Doxorubicin without tetrazine ([3]; no tetrazine, 37° C., PBS (72 h), column PBS/MeCN (3/1)): 0%
Doxorubicin release (%) from Axial-TCO-1-Doxorubicin without tetrazine ([4]; no tetrazine, serum (24 h)): 0%

SMILES: Cc1nnc(C)nn1 [tetrazine 8, 3,6-dimethyl-1,2,4,5-tetrazine]
Doxorubicin release (%) from Axial-TCO-1-Doxorubicin ([3]; 10 equiv. tetrazine, 25% MeCN in PBS (PBS/MeCN 3/1), 37° C., LCMS at 4 h, n = 3): 79 ± 3%
release of doxorubicin from TCO-1-doxorubucin, comparison of tetrazines 1, 8, 9 ([3]; PBS/ACN and serum): highest release
Doxorubicin release (%) from Axial-TCO-1-Doxorubicin ([4]; 10 equiv. tetrazine, 50% serum, LCMS at 4 h, n = 3): 75 ± 4%

Source: US20150297741A1, “BIO-ORTHOGONAL DRUG ACTIVATION” (TAGWORKS PHARMACEUTICALS B.V., priority 2012, published 2015)
